Measurements as given in article PMC11202002, “P18: Novel Anticancer Peptide from Induced Tumor-Suppressing Cells Targeting Breast Cancer and Bone Metastasis” (Cancers, 2024).

Tests used:
[1] = tested on: femurs inoculated with 4T1.2 mammary tumor cells; assay: Bone microenvironment assay (ex vivo bone culture, Western blot); format: cell-based, mouse; settings: 25 μg/mL P18 daily; 2 weeks
Experimental: Cells were lysed using a RIPA lysis buffer (sc-24948, Santa Cruz Biotech, Dallas, TX, USA) containing protease inhibitors (PIA32963, Thermo Fisher) and phosphatase inhibitors (2006643, Cal-biochem, Billerica, MA, USA). The proteins were separated on 10–15% SDS gels (Bio-Rad Laboratories, Hercules, CA, USA) and transferred to a polyvinylidene difluoride membrane (IPVH00010, Millipore, Billerica, MA, USA). The membrane was incubated with primary antibodies, followed by incubation with secondary antibodies (7074S/7076S, Cell Signaling, Danvers, MA, USA). The antibodies used included those against Snail, p-Src, Src, cleaved caspase 3, caspase 3, RANKL, Cdc42, Col1 and RhoA (Cell Signaling), ALP (Santa Cruz Biotech), OCN (Abcam, Boston, MA, USA), with β-actin (Sigma) as a control. The protein levels were detected using SuperSignal West Femto Maximum Sensitivity Substrate (PI34096, Thermo Fisher) and a luminescent image analyzer (LAS-3000, Fuji Film, Tokyo, Japan).
Femora were collected from […] female mice (~10 weeks old), and the surrounding connective tissues were removed. The femora were cut in half at the mid-diaphysis, and a hole was created at the end of the sample using a 25-gauge needle. 4T1.2 mammary tumor cells (2.5 × 10^5 cells) were resuspended in 10 μL of culture medium and injected into the bone marrow cavity through the open end of the diaphysis. […]

[2] = tested on: human triple-negative breast cancer tissue; assay: Ex vivo cancer tissue assay; format: cell-based; settings: 25 µg/mL of P18; four days (96 h); n = 6
Experimental: The usage of human triple-negative breast cancer tissue was approved by the Indiana University Institutional Review Board (1911155674), and the tissues were received from the Indiana University Simon Comprehensive Cancer Center Tissue Procurement Core. Freshly isolated breast cancer tissue (~10 mg) was manually fragmented with a scalpel into small pieces (0.5~0.8 mm in length), which were grown in DMEM with 10% FBS and antibiotics for a day. […] The culture medium, consisting of these agents, was applied for 4 days, and a change in the fragment size was determined.

[3] = tested on: peripheral blood mononuclear cells; format: cell-based, human
Experimental: (§1) Using 96-well plates with approximately 2000 cells per well, an MTT-based metabolic activity assay was performed. The cells were treated with agents and incubated for two days. On the fourth day, they were stained with 0.5 mg/mL thiazolyl blue tetrazolium bromide (M5655, Sigma). The optical density, used to assess metabolic activity, was measured at 562 nm. For the EdU-based proliferation activity assay, the cells were seeded in 96-well plates at about 1000 cells per well. A fluorescence-based cell proliferation kit (Click-iT™, EdU Alexa Fluor™ 488 Imaging Kit; Thermo Fisher, Waltham, MA, USA) was used according to the manufacturer’s instructions.

Jurkat lymphocytes = format: cell-based
Experimental: as §1

MC3T3 osteoblasts = format: cell-based
Experimental: as §1

## TDYMVGSYGPR [P18]
[1]
  levels of c-Cas 3, Cdc42, and alkaline phosphatase (ALP): upregulation
[2]
  size of ex vivo breast tissue fragments: significant decrease in the size
[3]
  MTT viability: did not exhibit any significant effects
Jurkat lymphocytes
  MTT viability: did not exhibit any significant effects
MC3T3 osteoblasts
  MTT viability: did not exhibit any significant effects
